Measured values from US7524849B2, “5-arylpyrimidines as anticancer agents” (Wyeth Holdings Corporation, priority 2003, dated 2009).
pIC50: −log10 of the molar value.

system: COLO 205 cells; test: MTS cytotoxicity test with COLO 205 cells; type: cell-based, human; details: Homo sapiens, 72 h, three days with compound
Protocol: The assay, which is sold in kit form by Promega (Madison, Wis.; CellTiter 96 AQueous Non-Radioactive Cell Proliferation Assay), is based on the conversion by viable cells, but not by dead cells, of the tetrazolium salt, MTS (3-(4,5-dimethylthiazol-2-yl)-5-(3-carboxymethoxyphenyl)-2-(4-sulphophenyl)-2H-tetrazolium, inner salt), into a water-soluble colored formazan which is detected by spectrophotometry. Compounds are tested at nine concentrations, in order to determine IC50 values. For the test procedure, cells are harvested by trypsinization, washed, counted and distributed to wells of 96-well flat-bottom microtiter plates at 1000 cells per well in 200 μL of medium. In addition, one row of wells on a separate plate receives cells as above (“time 0” plate). All plates are incubated at 37° in humidified 5% CO2 in air for about 24 hr.
On day 2, compounds for test are diluted and added to wells. Compounds are dissolved in DMSO at 10 mg/mL. For each compound, nine serial 2-fold dilutions are prepared in DMSO. Ten μL of each dilution in DMSO are transferred to 100 μL of medium, mixed well, and then 5 μL of this dilution are transferred in quadruplicate to wells containing cells. The final high concentration of each compound is typically 5 μM. Plates are returned to the incubator for three days. At the time of drug addition to the experimental plates, the MTS assay is run on the “time 0” plate. This produces the “time 0 MTS value” which is related to the number of viable cells per well at the time of drug addition.
After three days of culture with test compounds (day 5 overall), the MTS assay is done on all wells of the experimental plates. The absorbance values of the quadruplicate sample wells are averaged and divided by the average of the “time 0” values. The average of control wells without drug, divided by the average “time 0” value, gives the maximal relative increase in MTS color yield due to cell growth during the final three days of culture. The average of control wells with high drug concentration, divided by the “time 0” value, gives the minimal relative color yield for cells that were completely killed. The nine values for each compound are plotted against concentration, and the concentration that produces a relative color yield half way between the maximum and minimum is taken as the IC50 value.
COLO 205 is a human colon carcinoma cell line that is used for comparative testing of the examples of this invention and several reference compounds. This line is sensitive to paclitaxel and vincristine.

| Compound | pIC50 |
| --- | --- |
| CNCCCOc1cc(F)c(-c2c(Cl)nc(-c3cnccn3)nc2N[C@@H](C)C(F)(F)F)c(F)c1 [Example 24, 6-Chloro-5-{2,6-difluoro-4-[3-(methylamino)propoxy]phenyl}-2-pyrazin-2-yl-N-[(1S)-2,2,2-trifluoro-1-methylethyl]pyrimidin-4-amine] | 8.16 |
| CN(C)CCCCOc1cc(F)c(-c2c(Cl)nc(-c3cnccn3)nc2NCC(F)(F)F)c(F)c1 [Example 28, 6-Chloro-5-{4-[4-(dimethylamino)butoxy]-2,6-difluorophenyl}-2-pyrazin-2-yl-N-(2,2,2-trifluoroethyl)pyrimidin-4-amine] | 7.49 |
| O=[N+]([O-])c1ccc(-c2nc(Cl)c(-c3c(F)cc(F)cc3F)c(NCC(F)(F)F)n2)nc1 [Example 37, 6-Chloro-2-(5-nitropyridin-2-yl)-N-(2,2,2-trifluoroethyl)-5-(2,4,6-trifluorophenyl)pyrimidin-4-amine] | 6.88 |
| Fc1cc(F)c(-c2c(Cl)nc(-c3ccc[nH]3)nc2NCC(F)(F)F)c(F)c1 [Example 35, 6-Chloro-2-(1H-pyrrol-2-yl)-N-(2,2,2-trifluoroethyl)-5-(2,4,6-trifluorophenyl)pyrimidin-4-amine] | 5.15 |
| C[C@H](Nc1nc(-c2cnccn2)nc(Cl)c1-c1c(F)cc(F)cc1F)C(F)(F)F [Example 3, 6-Chloro-2-pyrazin-2-yl-N-[(1S)-2,2,2-trifluoro-1-methylethyl]-5-(2,4,6-trifluorophenyl)pyrimidin-4-amine] | 7.29 |
| Fc1cc(F)c(-c2c(Cl)nc(-n3cccn3)nc2NCC(F)(F)F)c(F)c1 [Example 16, 6-Chloro-2-(1H-pyrazol-1-yl)-N-(2,2,2-trifluoroethyl)-5-(2,4,6-trifluorophenyl)pyrimidin-4-amine] | 7.28 |
| Cn1ccnc1-c1nc(Cl)c(-c2c(F)cc(F)cc2F)c(NCC(F)(F)F)n1 [Example 34, 6-Chloro-2-(1-methyl-1H-imidazol-2-yl)-N-(2,2,2-trifluoroethyl)-5-(2,4,6-trifluorophenyl)pyrimidin-4-amine] | 7.11 |
| C[C@H](Nc1nc(-c2ccccn2)nc(Cl)c1-c1c(F)cc(F)cc1F)C(F)(F)F [Example 9, 6-Chloro-2-pyridin-2-yl-N-[(1S)-2,2,2-trifluoro-1-methylethyl]-5-(2,4,6-trifluorophenyl)pyrimidin-4-amine] | 7.54 |
| Fc1cc(F)c(-c2c(Cl)nc(-c3ccc4ccccc4n3)nc2NCC(F)(F)F)c(F)c1 [Example 10, 6-Chloro-2-quinolin-2-yl-N-(2,2,2-trifluoroethyl)-5-(2,4,6-trifluorophenyl)pyrimidin-4-amine] | 6.60 |
| Fc1cc(F)c(-c2c(Cl)nc(-c3cccnc3)nc2NCC(F)(F)F)c(F)c1 [Example 7, 6-Chloro-2-pyridin-3-yl-N-(2,2,2-trifluoroethyl)-5-(2,4,6-trifluorophenyl)pyrimidin-4-amine] | 5.41 |
| CN(C)CCCOc1cc(F)c(-c2c(Cl)nc(-c3cnccn3)nc2NCC(F)(F)F)c(F)c1 [Example 25, 6-Chloro-5-{4-[3-(dimethylamino)propoxy]-2,6-difluorophenyl}-2-pyrazin-2-yl-N-(2,2,2-trifluoroethyl)pyrimidin-4-amine] | 7.66 |
| CN(C)CCCOc1cc(F)c(-c2c(Cl)nc(-c3ncccn3)nc2NCC(F)(F)F)c(F)c1 [Example 26, 6-Chloro-5-{4-[3-(dimethylamino)propoxy]-2,6-difluorophenyl}-N-(2,2,2-trifluoroethyl)-2,2′-bipyrimidin-4-amine] | 7.31 |
| Fc1cc(F)c(-c2c(Cl)nc(-c3ccccn3)nc2NCC(F)(F)F)c(F)c1 [Example 8, 6-Chloro-2-pyridin-2-yl-N-(2,2,2-trifluoroethyl)-5-(2,4,6-trifluorophenyl)pyrimidin-4-amine] | 7.41 |
| Fc1cc(F)c(-c2c(Cl)nc(-n3cccc3)nc2NCC(F)(F)F)c(F)c1 [Example 18, 6-Chloro-2-(1H-pyrrol-1-yl)-N-(2,2,2-trifluoroethyl)-5-(2,4,6-trifluorophenyl)pyrimidin-4-amine] | 5.15 |
| Fc1cc(F)c(-c2c(Cl)nc(-c3ncccn3)nc2NCC(F)(F)F)c(F)c1 [Example 5, 6-Chloro-N-(2,2,2-trifluoroethyl)-5-(2,4,6-trifluorophenyl)-2,2′-bipyrimidin-4-amine] | 6.58 |
| Fc1cc(F)c(-c2c(Cl)nc(-c3nccc4ccccc34)nc2NCC(F)(F)F)c(F)c1 [Example 11, 6-Chloro-2-isoquinolin-1-yl-N-(2,2,2-trifluoroethyl)-5-(2,4,6-trifluorophenyl)pyrimidin-4-amine] | 5.33 |
| Fc1cc(F)c(-c2c(Cl)nc(-c3ccncc3)nc2NCC(F)(F)F)c(F)c1 [Example 6, 6-Chloro-2-pyridin-4-yl-N-(2,2,2-trifluoroethyl)-5-(2,4,6-trifluorophenyl)pyrimidin-4-amine] | 5.15 |
| Fc1cc(F)c(-c2c(Cl)nc(-c3cnccn3)nc2NCC(F)(F)F)c(F)c1 [Example 4, 6-Chloro-2-pyrazin-2-yl-N-(2,2,2-trifluoroethyl)-5-(2,4,6-trifluorophenyl)pyrimidin-4-amine] | 7.08 |
| CN(C)CCOc1cc(F)c(-c2c(Cl)nc(N(C)C#N)nc2NCC(F)(F)F)c(F)c1 [Example 22, 4-Chloro-5-{4-[2-(dimethylamino)ethoxy]-2,6-difluorophenyl}-6-[(2,2,2-trifluoroethyl)amino]pyrimidin-2-yl(methyl)cyanamide] | 6.27 |
| CN(C)CCOc1cc(F)c(-c2c(Cl)nc(-c3cnccn3)nc2NCC(F)(F)F)c(F)c1 [Example 27, 6-Chloro-5-{4-[2-(dimethylamino)ethoxy]-2,6-difluorophenyl}-2-pyrazin-2-yl-N-(2,2,2-trifluoroethyl)pyrimidin-4-amine] | 6.89 |
| C[C@H](Nc1nc(-n2cccn2)nc(Cl)c1-c1c(F)cc(F)cc1F)C(F)(F)F [Example 17, 6-Chloro-2-(1H-pyrazol-1-yl)-N-[(1S)-2,2,2-trifluoro-1-methylethyl)-5-(2,4,6-trifluorophenyl)pyrimidin-4-amine] | 7.72 |
| Fc1cc(F)c(-c2c(Cl)nc(-c3cc4ccccc4cn3)nc2NCC(F)(F)F)c(F)c1 [Example 12, 6-Chloro-2-isoquinolin-3-yl-N-(2,2,2-trifluoroethyl)-5-(2,4,6-trifluorophenyl)pyrimidin-4-amine] | 6.92 |
| Fc1cc(F)c(-c2c(Cl)nc(-c3cccs3)nc2NCC(F)(F)F)c(F)c1 [Example 13, 6-Chloro-2-thien-2-yl-N-(2,2,2-trifluoroethyl)-5-(2,4,6-trifluorophenyl)pyrimidin-4-amine] | 5.46 |
| Fc1cc(F)c(-c2c(Cl)nc(-c3ccco3)nc2NCC(F)(F)F)c(F)c1 [Example 14, 6-Chloro-2-(2-furyl)-N-(2,2,2-trifluoroethyl)-5-(2,4,6-trifluorophenyl)pyrimidin-4-amine] | 6.63 |
| Cc1ccnc(-c2nc(Cl)c(-c3c(F)cc(F)cc3F)c(NCC(F)(F)F)n2)c1 [Example 36, 6-Chloro-2-(4-methylpyridin-2-yl)-N-(2,2,2-trifluoroethyl)-5-(2,4,6-trifluorophenyl)pyrimidin-4-amine] | 6.96 |
| CN(C)CCCOc1cc(F)c(-c2c(Cl)nc(-c3ccc(N=[N+]=[N-])cn3)nc2NCC(F)(F)F)c(F)c1 [Example 38, 2-(5-Azidopyridin-2-yl)-6-chloro-5-{4-[3-(dimethylamino)propoxy]-2,6-difluorophenyl}-N-(2,2,2-trifluoroethyl)pyrimidin-4-amine] | 7.64 |

same assay, conditions: three days with compound

| Compound | pIC50 |
| --- | --- |
| 4-Chloro-6-[(2,2,2-trifluoroethyl)amino]-5-(2,4,6-trifluorophenyl)pyrimidin-2-yl]ethylcyanamide [Example 2] | 6.52 |
